In ChEMBL document CHEMBL2062517, “Design, synthesis, and antiviral activity of entry inhibitors that target the CD4-binding site of HIV-1” (J Med Chem, 2012):

Assays:
Format in all cases: cell-based
[1] = Inhibition of X4-tropic HIV1 HXB2 gp120-mediated entry into human TZM-b1 cells expressing CD4,CXCR4,CCR5,luciferase and beta-galactosidase after 3 days by single cycle neutralization assay; conditions: Human immunodeficiency virus 1, HXB2, TZM-b1, 72 h
[2] = Inhibition of X4-tropic HIV1 3B gp120-mediated entry into human MT2 cells assessed as Inhibition of p24 production incubated overnight followed by compound wash-out measured after 4 days post-infection by multi-cycle neutralization assay; conditions: Human immunodeficiency virus 1, 3B, MT2, 96 h
[3] = Cytotoxicity against human TZM-b1 cells after 3 days by XTT assay; conditions: for CC50 at 72 h: TZM-b1 cells; for CC50: tzm-b1, 72 h
MT2 [4] = assay: (§1) Cytotoxicity against human MT2 cells after 4 days by XTT assay; conditions: mt2, 96 h
[5] = Cytotoxicity against human TZM-b1 cells at >74 uM after 3 days by XTT assay; conditions: tzm-b1, 72 h
[6] = as §1; conditions: MT2 cells
[7] = Cytotoxicity against human TZM-b1 cells at >60 uM after 3 days by XTT assay; conditions: tzm-b1, 72 h
[8] = Cytotoxicity against human TZM-b1 cells at >75.5 uM after 3 days by XTT assay; conditions: tzm-b1, 72 h
[9] = Cytotoxicity against human TZM-b1 cells at >87 uM after 3 days by XTT assay; conditions: tzm-b1, 72 h
[10] = Cytotoxicity against human TZM-b1 cells at >77.8 uM after 3 days by XTT assay; conditions: tzm-b1, 72 h
[11] = Cytotoxicity against human TZM-b1 cells at >90 uM after 3 days by XTT assay; conditions: tzm-b1, 72 h
[12] = Cytotoxicity against human TZM-b1 cells at >88 uM after 3 days by XTT assay; conditions: tzm-b1, 72 h
MT2 [13] = assay: Cytotoxicity against human MT2 cells at >88 uM after 4 days by XTT assay; conditions: mt2, 96 h
[14] = Cytotoxicity against human TZM-b1 cells at >78.2 uM after 3 days by XTT assay; conditions: tzm-b1, 72 h
[15] = Cytotoxicity against human TZM-b1 cells at >75.8 uM after 3 days by XTT assay; conditions: tzm-b1, 72 h
[16] = Cytotoxicity against human TZM-b1 cells at >85 uM after 3 days by XTT assay; conditions: tzm-b1, 72 h
MT2 [17] = assay: Cytotoxicity against human MT2 cells at >41 uM after 4 days by XTT assay; conditions: mt2, 96 h
[18] = Cytotoxicity against human TZM-b1 cells at >22 uM after 3 days by XTT assay; conditions: tzm-b1, 72 h
MT2 [19] = assay: Cytotoxicity against human MT2 cells at >[…] after 4 days by XTT assay; conditions: mt2, 96 h
MT2 [20] = assay: Cytotoxicity against human MT2 cells at >62 uM after 4 days by XTT assay; conditions: mt2, 96 h
[21] = Cytotoxicity against human TZM-b1 cells at >84 uM after 3 days by XTT assay; conditions: tzm-b1, 72 h

Compound | IC50 [1] [µM] | IC50 [2] [µM] | CC50 at 72 h [3] [µM] | CC50 (MT2 [4]) [µM] | further results
CCn1cc(NC(=O)C(=O)Nc2ccc(Cl)cc2)cn1 | 5.9 | 11.9 | 8 | 10.7 | 
COC(=O)[C@@H]1C[C@@H](NC(=O)C(=O)Nc2ccc(Cl)cc2)[C@H](c2ccccc2)N1 | > 99.6 | > 24.9 | > 99.6 |  | 
C[C@@H](NC(=O)C(=O)Nc1ccc(Cl)cc1)[C@H](c1ccccc1)N1CCOCC1 | > 99.6 | > 24.9 | > 99.6 |  | 
Cc1nc(C(NC(=O)C(=O)Nc2ccc(C(F)(F)F)cc2)C2CCCCN2)sc1CCO (stereo unspecified) | 4.9 | 17.4 | > 74 | > 39 | Activity [5]: 35%
CC1(C)CC(NC(=O)C(=O)Nc2ccc(Cl)cc2)CC(C)(C)N1 | 4.2 | 8 | > 60 |  | CC50 at 96 h [6]: 150 µM; Activity [7]: 10%
Cc1nc(C(NC(=O)C(=O)Nc2ccc(C(F)(F)F)cc2)C2CCCCN2)sc1CO (mixture of isomers) | 10.3 | 4.6 | > 75.5 |  | Activity [8]: 10%
Cc1nc(C(NC(=O)C(=O)Nc2ccc(F)cc2F)C2CCCCN2)sc1CO (mixture of isomers) | > 87 | 110 | > 87 | > 110 | 
Cc1nc(C(NC(=O)C(=O)Nc2ccc(F)c(F)c2)C2CCCCN2)sc1CO (mixture of isomers) | 8.4 | 14 | > 87 |  | Activity [9]: 0%
CC(=O)c1ccc(NC(=O)C(=O)NC(c2nc(C)c(CO)s2)C2CCCCN2)cc1 (mixture of isomers) | > 86 | 107 | > 86 | > 107 | 
Cc1nc(C(NC(=O)C(=O)Nc2ccc(F)c(Cl)c2)C2CCCCN2)sc1CO (mixture of isomers) | 6.5 | 9.5 | > 77.8 |  | Activity [10]: 0%
Cc1nc(C(NC(=O)C(=O)Nc2ccc(F)cc2)C2CCCCN2)sc1CO (mixture of isomers) | 7.4 | 47.9 | > 90 | > 113 | Activity [11]: 0%
Cc1ccc(NC(=O)C(=O)NC(c2nc(C)c(CO)s2)C2CCCCN2)c(F)c1 (mixture of isomers) | > 88 | 66 | > 88 | > 109 | 
Cc1nc(C(NC(=O)C(=O)Nc2ccc(Cl)c(F)c2)C2CCCCN2)sc1CO (mixture of isomers) | 1.6 | 3.8 | 58.4 |  | CC50 at 96 h [6]: 77.8 µM
Cc1ccc(NC(=O)C(=O)NC(c2nc(C)c(CO)s2)C2CCCCN2)cc1F (mixture of isomers) | 2.7 | 5.3 | > 88 |  | Activity [12]: 0%; Activity (MT2 [13]): 30%
Cc1nc(C(NC(=O)C(=O)NC2CCCCCC2)C2CCCCN2)sc1CO (mixture of isomers) | > 90 | 39.3 | > 90 |  | 
Cc1nc(C(NC(=O)C(=O)Nc2ccc(F)cc2F)C2CCCCN2)sc1CCO (mixture of isomers) | > 84 | > 105 | > 84 | > 105 | 
Cc1nc(C(NC(=O)C(=O)Nc2ccc(F)c(F)c2)C2CCCCN2)sc1CCO (mixture of isomers) | 8.2 | 24.1 | > 78.2 |  | Activity [14]: 10%
CC(=O)c1ccc(NC(=O)C(=O)NC(c2nc(C)c(CCO)s2)C2CCCCN2)cc1 (mixture of isomers) | > 77.3 | 24.5 | > 77.3 | > 48.3 | 

Compound | IC50 [1] [µM] | IC50 [2] [µM] | CC50 at 72 h [3] [µM] | CC50 (MT2 [4]) [µM] | further results
Cc1nc(C(NC(=O)C(=O)Nc2ccc(F)c(Cl)c2)C2CCCCN2)sc1CCO (mixture of isomers) | 9 | 19.5 | > 75.8 |  | CC50 at 96 h [6]: 94.7 µM; Activity [15]: 20%
Cc1nc(C(NC(=O)C(=O)Nc2ccc(F)cc2)C2CCCCN2)sc1CCO (mixture of isomers) | 22 | 21.6 | > 88 |  | CC50 at 96 h [6]: 109 µM
Cc1ccc(NC(=O)C(=O)NC(c2nc(C)c(CCO)s2)C2CCCCN2)c(F)c1 (mixture of isomers) | > 78.8 | 45.8 | > 78.8 |  | 
Cc1ccc(NC(=O)C(=O)NC(c2nc(C)c(CCO)s2)C2CCCCN2)cc1F (mixture of isomers) | 1.66 | 3.7 | > 85 |  | CC50 at 96 h [6]: 85 µM; Activity [16]: 40%
Cc1nc(C(NC(=O)C(=O)Nc2ccc(Cl)c(F)c2)C2CCCCN2)sc1CCO (mixture of isomers) | 1.98 | 3.5 | 61 | > 41 | Activity (MT2 [17]): 10%
Cc1nc(C(NC(=O)C(=O)NC2CCCCCC2)C2CCCCN2)sc1CCO (mixture of isomers) | > 88 | 19.6 | > 88 |  | CC50 at 96 h [6]: 60 µM
Cc1nc(C(NC(=O)C(=O)Nc2ccc(Cl)cc2)C2CCCCN2)sc1CO (mixture of isomers) | 4.3 | 4.7 | > 22 | > 108 | Activity [18]: 10%; Activity (MT2 [19]): 40%
Cc1nc(C(NC(=O)C(=O)Nc2ccc(Cl)cc2)C2CCCNC2)sc1CO (mixture of isomers) | 1.4 | 12 | 60.2 | > 81 | 
Cc1nc(C(NC(=O)C(=O)Nc2ccc(Cl)cc2)C2CCCCN2)sc1CCO (mixture of isomers) | 4.6 | 4.2 |  | > 62 | CC50 [3]: 32.8 µM; Activity (MT2 [20]): 0%
Cc1nc(C(NC(=O)C(=O)Nc2ccc(Cl)cc2)C2CCCNC2)sc1CCO (mixture of isomers) | 0.65 | 13.1 | 59.4 | > 78.5 | 
Cc1nc(C(NC(=O)C(=O)Nc2ccc(Cl)cc2)C2CCCCN2C)sc1CCO (mixture of isomers) | 1.9 | 28.6 |  |  | CC50 [3]: 36 µM; CC50 at 96 h [6]: 88 µM
CC(=O)N1CCCCC1C(NC(=O)C(=O)Nc1ccc(Cl)cc1)c1nc(C)c(CCO)s1 (mixture of isomers) | 19.7 | > 52 | > 84 |  | Activity [21]: 20%
Cc1nc(C(NC(=O)C(=O)Nc2ccc(Cl)cc2)C2CCCN2)sc1CO (mixture of isomers) | 4.8 | 15.4 |  |  | CC50 [3]: 12.4 µM; CC50 at 96 h [6]: 45 µM
Cc1nc(C(NC(=O)C(=O)Nc2ccc(Cl)cc2)C2CCCN2)sc1CCO (mixture of isomers) | 4.2 | 16.2 | 4.9 |  | CC50 at 96 h [6]: 42 µM
Cc1nc(C(NC(=O)C(=O)Nc2ccc(Cl)cc2)C2CCNCC2)sc1CO (racemic) | 0.83 | 29.8 | 81 | > 81 | 
Cc1nc(C(NC(=O)C(=O)Nc2ccc(Cl)cc2)C2CCNCC2)sc1CCO (racemic) | 1 | 30.5 | 85.4 | > 78.5 | 
CNCC(NC(=O)C(=O)Nc1ccc(Cl)cc1)c1nc(C)c(CCO)s1 (racemic) | 2.8 | 24.3 |  | > 43 | CC50 [3]: 16.6 µM
